Data as given in US20150132788A1, “ESTABLISHING THE VIABILITY OF BIOLOGICAL SAMPLES” (Ovamed GmbH, priority 2012, published 2015).

Key:
eggs of Trichuris suis = assay: Dyeing of Trichuris suis eggs (TSO) with ageladine A, fluorescence microscopy with UV excitation
Method: Embryonated eggs of Trichuris suis (TSO) according to specification of Ovamed GmbH. The nematode eggs are stored in the refrigerator at from 4 to 8° C. in a phosphate buffer at pH 5 with addition of potassium sorbate. For the tests, the TSO were washed several times in 1×DPBS (re-buffering) and adjusted to a concentration of 1000 TSO/ml.
Ageladine stock solution: 10 mM in MeOH (90%); 1 μl of ageladine was combined with 1000 μl of TSO suspension (see 2.5) in 15 ml tubes. The contents were mixed by gentle shaking and incubated for 10 minutes at ambient temperature in the dark.
The ISO were washed three times in DPBS after being dyed with Ageladine A (see 2.6.2). 10 μl of the samples were placed on object carriers with recesses and covered with glass covers. The object carriers were observed under the microscope Leica SP5 MP with and without UV excitation.

[1] = tested on: sensitive cells (for example, PC12); conditions: cited from earlier work
[2] = cited from earlier work
[3] = cited from earlier work; remark: listed apart in the source

SMILES: Nc1nc2ccnc(-c3cc(Br)c(Br)[nH]3)c2[nH]1 [ageladine A]
- absorption of the dye by eggs of the whipworm (eggs of Trichuris suis; eggs normally absorb dyes very poorly): very rapid
- proportion of TSO exhibiting fluorescence after incubation with ageladine A (eggs of Trichuris suis; excitation 370 nm, detection 410-480 nm, 10 minutes incubation at ambient temperature): a small percentage
- correlation between eggs marked as defective by morphological criteria and fluorescing eggs (eggs of Trichuris suis; optical blind test, fourteen TSO, UV excitation): high level of correlation
- fluorescence in degenerated eggs of Trichuris suis (eggs of Trichuris suis; ultraviolet excitation, multi-photon microscopy): fluoresces
- toxicity ([1]; sensitive cells (for example, PC12), long incubation): not toxic
- cell toxicity after a long incubation time ([1]; whipworm eggs, long incubation time): not cell-toxic
- membrane permeability in the charged (protonated, acidic medium) state ([2]; charged state): membrane-impermeable
- membrane permeability [2]: high level of membrane-permeability
- membrane permeability in the uncharged (alkaline medium) state ([2]; uncharged state): very rapidly crosses many cell membranes
- pH of greatest fluorescence ([3]; fluorescence decreases as the pH value increases): ~4 pH
- stability of the dyeing ([3]; intensive dyes in cells, tissues, organisms): stable over hours and days
- tendency to fade ([3]; relatively long incubation times): scarcely has any tendency to fade
